System: SEM cells
Experiment: cell viability relative to DMSO control; higher = less cytotoxic
Conditions: 48 h
Summary of the method: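 Viability was expressed as a per-plate percentage of DMSO wells, with cell-free wells as background. Leukemia cells (NOMO1 or SEM at 500 cells/well, P12-Ichikawa at 1000 cells/well) were adapted for at least four passages in each medium and seeded in 1536-well plates (5 μl). Library compounds in DMSO were pin-dosed over an 11-point threefold series from 47 μM to 0.79 nM, and CellTiter-Glo One luminescence was read after 48 h at 37°C.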

C[S+](=O)([O-])Oc1ccc2c(NC(N)=O)c(C(=O)c3ccc(Cl)cc3Cl)oc2c1
cell viability [%]
Conditions | HPLM + 10% dialyzed FBS | RPMI 5 mM glucose + 10% FBS | RPMI 5 mM glucose + 10% dialyzed FBS
0.000781 µM | 98.3 | 93.7 | 82.9
0.00234 µM | 103 | 95.9 | 91.6
0.00702 µM | 107 | 106 | 102
0.0211 µM | 109 | 109 | 94
0.0632 µM | 109 | 117 | 97
0.19 µM | 104 | 105 | 103
0.569 µM | 110 | 106 | 105
1.71 µM | 117 | 114 | 92.7
5.12 µM | 129 | 103 | 98.2
15.4 µM | 120 | 122 | 92.5
46.1 µM | 120 | 112 | 105

Reference: the supplement of paper PMC11451515
